The values that follow come from patent publication US6703403B2, “Method for improving pharmacokinetics” (Abbott Laboratories, priority 1995, dated 2004).

A short description of series [1]: Pharmacokinetics of HIV protease inhibitors in rats, alone vs. in combination with ritonavir. In kind it is in vivo. To be noted: rat, po, 10 mg/kg; for AUC(0-t): read-out: AUC (0-8 h). How it is done: Rats (male, Sprague-Dawley derived, 0.3-0.45 kg) were fasted overnight prior to dosing, but were permitted water ad libitum. […] The solutions, administered orally by gavage to a group of rats at a dose volume of 2 ml/kg, provided a 10 mg/kg dose of each compound. […] The plasma was separated from the red cells by centrifugation and frozen (−30° C.) until analysis. […] The peak plasma concentration (Cmax) and time to peak plasma concentration (Tmax) for each rat were obtained directly from the plasma concentration data. The area under the curve was calculated by the trapezoidal method over the time course of the study. The plasma elimination half life was obtained from NONLIN84 or from a log-linear regression of the terminal plasma concentrations as a function of time after dosing. Each combination was evaluated in a group containing at least three rats; the values reported are averages for each group of animals. The data obtained from the combination was compared to data obtained from a separate group of rats which received a single, separate dose of the compound under evaluation.

Series [2] can be described thus: Pharmacokinetics of clarithromycin in humans, alone vs. in combination with ritonavir. Particulars: oral, healthy human volunteers, 500 mg every 12 hours, single agent, day four of dosing, plasma. The series is classed as in vivo. An excerpt: Blood samples were collected on day four of dosing for HPLC determination of plasma concentrations of clarithromycin. Below in Table 2 are shown the results from the pharmacokinetic experiments with clarithromycin in humans.

The mark [3] stands for this setting: male, Sprague-Dawley, plasma, oral gavage 10 mg/kg, compound administered as a single agent, plasma.
Setting [4] is: male, Sprague-Dawley, plasma, oral gavage 10 mg/kg, compound administered as a single agent, plasma, read-out: Cmax.
[5] abbreviates: male, Sprague-Dawley, plasma, oral gavage 10 mg/kg, compound administered as a single agent, plasma, read-out: Tmax.
[6] abbreviates: male, Sprague-Dawley, plasma, oral gavage 10 mg/kg, dosed in combination with ritonavir 10 mg/kg, plasma.
Setting [7] is: male, Sprague-Dawley, plasma, oral gavage 10 mg/kg, dosed in combination with ritonavir 10 mg/kg, plasma, read-out: Cmax.
[8] abbreviates: male, Sprague-Dawley, plasma, oral gavage 10 mg/kg, dosed in combination with ritonavir 10 mg/kg, plasma, read-out: Tmax.

As a reminder, the Cmax is the peak of the concentration-time curve. A word on the Tmax: it is the time from dosing to the highest level. As for `Cc1c(O)cccc1C(=O)NC(CSc1ccccc1)C(O)CN1CC2CCCCC2CC1C(=O)NC(C)(C)C` (centres unmarked) [AG1343], the AUC(0-t) was found to be 1140 ng·h/mL in series [1] (setting [3]) and 11900 ng·h/mL in series [1] (setting [6]). Also, the peak concentration (Cmax) was 400 ng/mL in series [1] (setting [4]) and 1810 ng/mL in series [1] (setting [7]). Besides, the values for the Tmax in series [1] (setting [5]) and in series [1] (setting [8]) were 45 min and 240 min, respectively.
`CC(C)[C@H](NC(=O)N(C)Cc1ccccn1)C(=O)N[C@@H](Cc1ccccc1)[C@H](O)[C@H](O)[C@H](Cc1ccccc1)NC(=O)[C@@H](NC(=O)N(C)Cc1ccccn1)C(C)C` [Compound A-77003, (2S,3R,4S,5S)-2,5-Di-(N-((N-methyl)-N-((2-pyridinyl)methyl)amino)carbonylvalinylamino)-3,4-dihydroxy-1,6-diphenyl hexane]: the AUC(0-t) in series [1] (setting [3]) turned out to be 25 ng·h/mL; in series [1] (setting [6]), 1390 ng·h/mL. In addition, the Cmax in series [1] (setting [4]) was determined as 70 ng/mL; in series [1] (setting [7]), 960 ng/mL. The time of peak concentration (Tmax) in series [1] (setting [5]) worked out at 15 min; in series [1] (setting [8]), 40.2 min.
With `CC(C)[C@H](NC(=O)OCc1ccccn1)C(=O)N[C@@H](Cc1ccccc1)[C@@H](O)C[C@H](Cc1ccccc1)NC(=O)OCc1cccnc1` [Compound A-80987], in series [1] (in vivo), the “AUC (0-8 h)” value turned out to be 1450 ng·h/mL, the Cmax came out at 2420 ng/mL and the time of peak concentration (Tmax) was found to be 15 min.
Turning to `CC(C)(C)NC(=O)[C@@H]1CN(Cc2cccnc2)CCN1C[C@@H](O)C[C@@H](Cc1ccccc1)C(=O)N[C@H]1c2ccccc2C[C@H]1O` [MK-639, N-(2(R)-hydroxy-1 (S)-indanyl)-2(R)-phenylmethyl-4(S)-hydroxy-5-(1-(4-(3-pyridylmethyl)-2(S)-N′-(t-butylcarboxamido)-piperazinyl))-pentaneamide], in series [1] (male, Sprague-Dawley, in vivo), the “AUC (0-8 h)” value amounted to 810 ng·h/mL and the time to peak (Tmax) worked out at 30 min. The Cmax in series [1] (male, Sprague-Dawley, in vivo, Cmax) amounted to 1030 ng/mL.
On to `CC(C)(C)NC(=O)[C@@H]1C[C@@H]2CCCC[C@@H]2CN1C[C@@H](O)[C@H](Cc1ccccc1)NC(=O)[C@H](CC(N)=O)NC(=O)c1ccc2ccccc2n1` [Saquinavir, N-tert-butyl-decahydro-2-[2(R)-hydroxy-4-phenyl-3(S)-[[N-(2-quinolylcarbonyl)-L-asparaginyl]amino]butyl]-(4aS, 8aS)-isoquinoline-3(S)-carboxamide], for which, in series [1] (male, Sprague-Dawley, in vivo), the “AUC (0-8 h)” value was 29 ng·h/mL, the Cmax came out at 80 ng/mL and the Tmax amounted to 10.8 min.
For `CC(C)CN(CC(O)C(Cc1ccccc1)NC(=O)OC1CCOC1)S(=O)(=O)c1ccc(N)cc1` (centres unmarked) [VX-478], the AUC(0-t) in series [1] (male, Sprague-Dawley, in vivo, oral gavage 10 mg/kg, compound administered as a single agent, plasma) was determined as 1690 ng·h/mL; in series [1] (male, Sprague-Dawley, in vivo, oral gavage 10 mg/kg, dosed in combination with ritonavir 10 mg/kg, plasma), 13500 ng·h/mL. In addition, the Cmax was 1610 ng/mL in series [1] (male, Sprague-Dawley, in vivo, oral gavage 10 mg/kg, compound administered as a single agent, plasma, read-out: Cmax) and 2880 ng/mL in series [1] (male, Sprague-Dawley, in vivo, oral gavage 10 mg/kg, dosed in combination with ritonavir 10 mg/kg, plasma, read-out: Cmax). Moreover, the time to peak (Tmax) in series [1] (male, Sprague-Dawley, in vivo, oral gavage 10 mg/kg, compound administered as a single agent, plasma, read-out: Tmax) worked out at 25.2 min; in series [1] (male, Sprague-Dawley, in vivo, oral gavage 10 mg/kg, dosed in combination with ritonavir 10 mg/kg, plasma, read-out: Tmax), 90 min.
Take `CC[C@H]1OC(=O)[C@H](C)[C@@H](O[C@H]2C[C@@](C)(OC)[C@@H](O)[C@H](C)O2)[C@H](C)[C@@H](O[C@@H]2O[C@H](C)C[C@H](N(C)C)[C@H]2O)[C@](C)(OC)C[C@@H](C)C(=O)[C@H](C)[C@@H](O)[C@]1(C)O` [clarithromycin]: the highest concentration (Cmax) in series [2] came to 3930 ng/mL. Moreover, the AUC(0-t) in series [2] (read-out: AUC (0-24 h)) amounted to 49000 ng·h/mL.
